Test results from ChEMBL document CHEMBL5150077, “Identification of TUL01101: A Novel Potent and Selective JAK1 Inhibitor for the Treatment of Rheumatoid Arthritis” (J Med Chem, 2022).
Activity calls are given as the source filed them. The rule behind the calls is not given here.

Columns and labels:
[1] = target: T1, Tyrosine-protein kinase JAK3 (Homo sapiens, UniProt P52333); experiment: Inhibition of recombinant human JAK3 using GGEEEEYFELVKKKK as substrate incubated for 40 mins in presence of Mg/ATP mixture by [gamma p33]-ATP based scintillation counting method
T1 sequence (P52333 whole entry): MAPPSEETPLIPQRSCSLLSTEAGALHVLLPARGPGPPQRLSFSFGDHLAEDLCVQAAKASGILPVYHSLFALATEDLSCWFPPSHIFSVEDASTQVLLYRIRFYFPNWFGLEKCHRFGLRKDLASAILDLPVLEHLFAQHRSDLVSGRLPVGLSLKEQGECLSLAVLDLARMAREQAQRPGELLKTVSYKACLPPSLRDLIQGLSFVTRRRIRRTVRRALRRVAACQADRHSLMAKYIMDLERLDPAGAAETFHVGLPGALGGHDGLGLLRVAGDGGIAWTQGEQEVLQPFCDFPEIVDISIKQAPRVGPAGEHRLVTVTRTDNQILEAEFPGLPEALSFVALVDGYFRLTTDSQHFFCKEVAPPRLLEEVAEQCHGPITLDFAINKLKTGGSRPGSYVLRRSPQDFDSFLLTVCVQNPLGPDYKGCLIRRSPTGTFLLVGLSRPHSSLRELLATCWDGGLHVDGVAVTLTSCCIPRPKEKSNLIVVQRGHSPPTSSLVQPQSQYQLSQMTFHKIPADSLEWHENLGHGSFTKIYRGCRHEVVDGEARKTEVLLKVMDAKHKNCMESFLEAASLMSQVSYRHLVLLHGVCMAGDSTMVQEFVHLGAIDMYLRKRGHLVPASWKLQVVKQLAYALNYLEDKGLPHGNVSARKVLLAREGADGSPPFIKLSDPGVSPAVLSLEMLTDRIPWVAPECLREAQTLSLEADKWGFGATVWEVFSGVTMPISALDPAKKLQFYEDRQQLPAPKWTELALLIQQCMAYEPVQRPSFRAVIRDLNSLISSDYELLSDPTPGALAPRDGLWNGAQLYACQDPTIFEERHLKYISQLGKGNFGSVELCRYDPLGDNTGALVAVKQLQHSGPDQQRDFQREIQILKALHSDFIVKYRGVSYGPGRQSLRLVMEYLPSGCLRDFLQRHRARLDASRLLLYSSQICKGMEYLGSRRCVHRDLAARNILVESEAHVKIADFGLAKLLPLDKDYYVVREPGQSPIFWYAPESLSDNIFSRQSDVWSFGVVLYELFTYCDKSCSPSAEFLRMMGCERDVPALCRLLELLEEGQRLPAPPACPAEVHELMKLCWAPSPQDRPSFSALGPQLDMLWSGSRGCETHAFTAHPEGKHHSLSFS

[2] = Metabolic stability in mouse hepatocytes assessed as intrinsic clearance at 1 uM incubated for 90 mins by LC/MS/MS analysis; format: ADME, cell-based, Hepatocyte
[3] = Efflux ratio of apparent permeability from basolateral to apical side over apical to basolateral side in human Caco-2 cells at 10 uM incubated for 120 mins by LC-MS/MS analysis
Cytochrome P450 2C9 = Cytochrome P450 2C9 (Homo sapiens, UniProt P11712); experiment: Inhibition of CYP2C9 in human liver microsomes incubated in presence NADPH by LC-MS/MS analysis
Sequence of Cytochrome P450 2C9 (P11712 whole entry): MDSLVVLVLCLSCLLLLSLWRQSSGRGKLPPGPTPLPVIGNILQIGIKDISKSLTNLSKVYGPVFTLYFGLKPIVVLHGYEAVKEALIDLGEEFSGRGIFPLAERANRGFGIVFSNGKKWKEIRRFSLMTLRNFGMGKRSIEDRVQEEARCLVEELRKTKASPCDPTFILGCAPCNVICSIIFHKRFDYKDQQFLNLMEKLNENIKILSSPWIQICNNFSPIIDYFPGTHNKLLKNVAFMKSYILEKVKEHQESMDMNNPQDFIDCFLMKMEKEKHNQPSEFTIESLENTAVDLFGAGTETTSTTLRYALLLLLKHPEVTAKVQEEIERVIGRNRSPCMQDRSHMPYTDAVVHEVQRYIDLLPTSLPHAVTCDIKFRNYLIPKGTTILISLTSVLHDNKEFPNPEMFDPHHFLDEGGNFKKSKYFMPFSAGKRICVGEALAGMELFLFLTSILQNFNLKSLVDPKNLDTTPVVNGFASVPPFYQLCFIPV

[4] = Plasma protein binding in rat assessed as unbound fraction at 2 uM incubated for 4 hrs by LC/MS/MS based balanced dialysis method
Cytochrome P450 3A4 = Cytochrome P450 3A4 (Homo sapiens, UniProt P08684); experiment: Inhibition of CYP3A4 in human liver microsomes incubated in presence NADPH by LC-MS/MS analysis
Sequence of Cytochrome P450 3A4 (P08684 whole entry): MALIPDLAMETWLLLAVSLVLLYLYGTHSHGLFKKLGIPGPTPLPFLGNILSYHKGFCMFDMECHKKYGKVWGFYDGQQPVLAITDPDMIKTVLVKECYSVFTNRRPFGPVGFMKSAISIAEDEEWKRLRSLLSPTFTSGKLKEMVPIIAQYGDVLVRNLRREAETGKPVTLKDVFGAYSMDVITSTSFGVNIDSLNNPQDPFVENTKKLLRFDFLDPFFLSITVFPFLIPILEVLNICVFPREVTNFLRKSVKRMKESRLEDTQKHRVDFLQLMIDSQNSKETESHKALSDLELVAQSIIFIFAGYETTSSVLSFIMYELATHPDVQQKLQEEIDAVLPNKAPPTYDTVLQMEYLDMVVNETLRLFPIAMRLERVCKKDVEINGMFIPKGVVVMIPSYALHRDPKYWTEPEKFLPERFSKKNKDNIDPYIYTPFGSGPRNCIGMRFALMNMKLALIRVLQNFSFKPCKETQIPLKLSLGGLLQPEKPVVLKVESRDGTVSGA

[5] = target: Dual specificity tyrosine-phosphorylation-regulated kinase 3 (Homo sapiens) (UniProt O43781); experiment: Inhibition of human DYRK3 assessed as residual activity at 30 uM relative to control
Sequence of Dual specificity tyrosine-phosphorylation-regulated kinase 3 (Homo sapiens) (O43781 whole entry): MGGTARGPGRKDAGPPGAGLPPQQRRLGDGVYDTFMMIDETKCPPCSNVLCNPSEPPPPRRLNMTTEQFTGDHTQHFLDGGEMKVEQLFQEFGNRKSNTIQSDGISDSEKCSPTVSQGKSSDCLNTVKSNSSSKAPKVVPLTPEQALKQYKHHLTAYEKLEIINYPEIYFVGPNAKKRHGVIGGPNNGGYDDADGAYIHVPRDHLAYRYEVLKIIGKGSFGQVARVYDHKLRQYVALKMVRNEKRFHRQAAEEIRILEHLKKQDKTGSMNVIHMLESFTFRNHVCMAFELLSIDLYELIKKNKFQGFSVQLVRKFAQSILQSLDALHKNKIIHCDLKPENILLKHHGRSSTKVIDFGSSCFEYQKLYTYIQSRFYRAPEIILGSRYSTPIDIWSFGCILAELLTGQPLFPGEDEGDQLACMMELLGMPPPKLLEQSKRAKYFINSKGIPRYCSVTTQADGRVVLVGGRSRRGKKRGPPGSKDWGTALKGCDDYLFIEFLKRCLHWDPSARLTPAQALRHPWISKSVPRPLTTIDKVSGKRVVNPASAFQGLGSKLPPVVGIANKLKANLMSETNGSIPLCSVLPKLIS

[6] = Elimination half life in Sprague-Dawley rat at 10 mg/kg, po measured for 24 hrs by LC-MS/MS analysis; format: ADME, organism-based; conditions: in vivo, read-out: beta t1/2 (converted)
[7] = Elimination half life in C57BL/6 mouse at 15 mg/kg, po measured for 24 hrs by LC/MS/MS analysis; format: ADME, organism-based; conditions: in vivo, read-out: beta t1/2 (converted)
[8] = target: Aurora kinase A (Homo sapiens) (UniProt O14965); experiment: Inhibition of human Aurora A assessed as residual activity at 30 uM relative to control
[9] = Volume of distribution at steady state in C57BL/6 mouse at 15 mg/kg, po or 2 mg/kg, iv measured for 24 hrs by LC/MS/MS analysis; format: ADME, organism-based; conditions: in vivo
[10] = target: Receptor-type tyrosine-protein kinase FLT3 (Homo sapiens) (UniProt P36888); experiment: Inhibition of human FLT3 assessed as residual activity at 30 uM relative to control
Sequence of Receptor-type tyrosine-protein kinase FLT3 (Homo sapiens) (P36888 whole entry): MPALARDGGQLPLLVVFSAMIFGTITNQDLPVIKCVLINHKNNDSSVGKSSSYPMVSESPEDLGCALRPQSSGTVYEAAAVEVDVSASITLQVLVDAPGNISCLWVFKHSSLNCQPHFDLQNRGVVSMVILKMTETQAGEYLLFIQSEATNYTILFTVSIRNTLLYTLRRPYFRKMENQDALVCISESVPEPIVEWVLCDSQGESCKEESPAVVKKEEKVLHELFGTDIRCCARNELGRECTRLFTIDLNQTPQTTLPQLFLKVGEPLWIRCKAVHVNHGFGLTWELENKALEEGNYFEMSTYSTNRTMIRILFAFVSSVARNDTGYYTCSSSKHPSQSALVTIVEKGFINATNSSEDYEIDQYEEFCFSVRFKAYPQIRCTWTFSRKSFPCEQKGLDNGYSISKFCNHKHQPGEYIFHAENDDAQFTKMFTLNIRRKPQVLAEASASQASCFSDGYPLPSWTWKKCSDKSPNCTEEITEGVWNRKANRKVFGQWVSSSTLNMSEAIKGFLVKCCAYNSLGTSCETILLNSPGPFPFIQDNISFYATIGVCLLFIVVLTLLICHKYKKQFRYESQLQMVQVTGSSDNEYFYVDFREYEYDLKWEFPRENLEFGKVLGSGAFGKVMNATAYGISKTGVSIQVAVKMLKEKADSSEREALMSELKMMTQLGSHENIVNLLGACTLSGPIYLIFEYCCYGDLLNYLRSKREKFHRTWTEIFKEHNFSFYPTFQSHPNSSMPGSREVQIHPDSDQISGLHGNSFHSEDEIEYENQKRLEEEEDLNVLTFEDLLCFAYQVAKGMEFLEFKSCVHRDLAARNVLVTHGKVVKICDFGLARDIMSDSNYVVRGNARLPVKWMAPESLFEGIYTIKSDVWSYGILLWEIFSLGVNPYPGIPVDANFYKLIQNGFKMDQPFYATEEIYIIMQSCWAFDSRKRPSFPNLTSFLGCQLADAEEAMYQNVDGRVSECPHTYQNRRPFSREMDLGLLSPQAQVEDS

[11] = AUC in Sprague-Dawley rat at 10 mg/kg, po measured for 24 hrs by LC-MS/MS analysis; format: ADME, organism-based; parameters: time 24 hrs, dose 10 mg/kg, route po; conditions: in vivo
[12] = Clearance in Sprague-Dawley rat at 1 mg/kg, iv measured for 24 hrs by LC-MS/MS analysis; format: ADME, organism-based; conditions: in vivo
[13] = target: Interleukin-1 receptor-associated kinase 4 (Homo sapiens) (UniProt Q9NWZ3); experiment: Inhibition of human IRAK4 assessed as residual activity at 30 uM relative to control
Sequence of Interleukin-1 receptor-associated kinase 4 (Homo sapiens) (Q9NWZ3 whole entry): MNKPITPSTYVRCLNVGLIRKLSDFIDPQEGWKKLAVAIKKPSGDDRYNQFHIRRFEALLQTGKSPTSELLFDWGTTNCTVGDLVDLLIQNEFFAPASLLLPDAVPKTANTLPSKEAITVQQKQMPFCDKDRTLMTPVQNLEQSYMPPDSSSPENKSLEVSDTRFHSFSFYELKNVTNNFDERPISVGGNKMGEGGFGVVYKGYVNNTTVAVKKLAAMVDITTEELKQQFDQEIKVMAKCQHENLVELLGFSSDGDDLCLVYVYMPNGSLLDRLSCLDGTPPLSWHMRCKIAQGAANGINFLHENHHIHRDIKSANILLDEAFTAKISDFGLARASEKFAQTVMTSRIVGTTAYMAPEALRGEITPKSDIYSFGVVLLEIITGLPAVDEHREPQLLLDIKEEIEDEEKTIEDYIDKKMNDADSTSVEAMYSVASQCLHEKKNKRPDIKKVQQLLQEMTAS

Mus musculus [14] = experiment: Antiarthritic activity in collagen-induced rheumatoid arthritis DBA/1 mouse model assessed as recovery of body weight at 15 mg/kg, po BID administered for 14 days starting from 7 days before immunization to 21 days after immunization and measured on day 22 post immunization; format: functional, organism-based; conditions: time 14.0 day
[15] = target: Epidermal growth factor receptor (Homo sapiens) (UniProt P00533); experiment: Inhibition of human EGFR assessed as residual activity at 30 uM relative to control
Sequence of Epidermal growth factor receptor (Homo sapiens) (P00533 whole entry): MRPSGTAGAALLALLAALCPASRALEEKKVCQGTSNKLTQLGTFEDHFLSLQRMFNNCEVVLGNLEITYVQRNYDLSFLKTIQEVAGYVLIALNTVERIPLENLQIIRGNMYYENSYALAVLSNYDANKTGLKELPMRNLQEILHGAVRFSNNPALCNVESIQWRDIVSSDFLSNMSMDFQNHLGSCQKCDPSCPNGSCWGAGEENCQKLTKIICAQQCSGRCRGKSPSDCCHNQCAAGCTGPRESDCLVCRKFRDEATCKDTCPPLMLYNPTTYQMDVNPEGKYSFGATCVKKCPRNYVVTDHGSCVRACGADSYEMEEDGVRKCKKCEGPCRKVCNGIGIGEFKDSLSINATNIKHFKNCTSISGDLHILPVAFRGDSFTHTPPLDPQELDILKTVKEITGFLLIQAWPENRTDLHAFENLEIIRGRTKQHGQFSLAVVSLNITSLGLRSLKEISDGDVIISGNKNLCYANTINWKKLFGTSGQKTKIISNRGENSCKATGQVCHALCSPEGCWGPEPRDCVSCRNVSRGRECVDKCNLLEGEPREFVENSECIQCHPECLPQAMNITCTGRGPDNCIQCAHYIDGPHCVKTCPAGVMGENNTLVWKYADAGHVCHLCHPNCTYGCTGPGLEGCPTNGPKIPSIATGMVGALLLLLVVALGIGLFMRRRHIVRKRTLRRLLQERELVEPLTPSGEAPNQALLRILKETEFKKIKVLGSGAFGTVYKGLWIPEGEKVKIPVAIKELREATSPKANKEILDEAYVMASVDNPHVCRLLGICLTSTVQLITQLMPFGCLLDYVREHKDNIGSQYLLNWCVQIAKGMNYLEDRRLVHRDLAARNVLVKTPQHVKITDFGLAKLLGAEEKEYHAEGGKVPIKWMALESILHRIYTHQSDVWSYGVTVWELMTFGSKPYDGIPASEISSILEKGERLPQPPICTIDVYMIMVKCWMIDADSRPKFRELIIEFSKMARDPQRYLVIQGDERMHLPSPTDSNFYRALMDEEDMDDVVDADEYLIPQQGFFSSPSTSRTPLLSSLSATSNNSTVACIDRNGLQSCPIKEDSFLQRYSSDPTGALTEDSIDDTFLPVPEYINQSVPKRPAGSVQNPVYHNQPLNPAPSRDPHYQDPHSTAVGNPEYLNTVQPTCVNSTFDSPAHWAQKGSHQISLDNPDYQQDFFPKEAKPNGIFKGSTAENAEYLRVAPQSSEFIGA

in vivo [16] = conditions: Sprague-Dawley, rat, po, 10 mg/kg
in vivo [17] = conditions: Sprague-Dawley, rat, po, 10 mg/kg; remark: listed apart in the source
Mus musculus [18] = experiment: Antiarthritic activity in collagen-induced rheumatoid arthritis DBA/1 mouse model assessed as reduction in clinical score AUC at 15 mg/kg, po BID administered for 14 days starting from 7 days before immunization to 21 days after immunization and measured on day 41 post immunization; format: functional, organism-based; conditions: time 14.0 day
[19] = target: Tyrosine-protein kinase Blk (Homo sapiens) (UniProt P51451); experiment: Inhibition of human BLK assessed as residual activity at 30 uM relative to control
Sequence of Tyrosine-protein kinase Blk (Homo sapiens) (P51451 2-505 limits assumed): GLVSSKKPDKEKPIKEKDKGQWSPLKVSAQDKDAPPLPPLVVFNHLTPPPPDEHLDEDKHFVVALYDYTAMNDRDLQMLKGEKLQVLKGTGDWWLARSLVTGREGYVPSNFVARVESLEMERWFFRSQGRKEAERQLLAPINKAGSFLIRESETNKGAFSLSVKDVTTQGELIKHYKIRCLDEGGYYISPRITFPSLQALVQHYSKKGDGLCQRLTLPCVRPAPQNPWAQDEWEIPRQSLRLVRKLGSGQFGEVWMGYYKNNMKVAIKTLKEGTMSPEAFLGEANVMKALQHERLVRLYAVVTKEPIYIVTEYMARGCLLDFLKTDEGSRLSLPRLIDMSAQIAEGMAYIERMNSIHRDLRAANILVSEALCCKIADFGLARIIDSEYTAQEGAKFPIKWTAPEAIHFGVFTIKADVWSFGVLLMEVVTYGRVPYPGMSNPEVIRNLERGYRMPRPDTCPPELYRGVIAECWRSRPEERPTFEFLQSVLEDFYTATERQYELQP

in vivo [20] = conditions: C57BL/6, mouse, po, 15 mg/kg
in vivo [21] = conditions: C57BL/6, mouse, po, 15 mg/kg; remark: listed apart in the source
[22] = AUC in C57BL/6 mouse at 15 mg/kg, po measured for 24 hrs by LC/MS/MS analysis; format: ADME, organism-based; parameters: dose 15 mg/kg, time 24 hrs, route po; conditions: in vivo
Mus musculus [23] = experiment: Antiarthritic activity in collagen-induced rheumatoid arthritis DBA/1 mouse model assessed as reduction in incidence rate at 15 mg/kg, po BID administered for 14 days starting from 7 days before immunization to 21 days after immunization and measured on day 41 post immunization; format: functional; parameters: scale not given: the % may be the effect or the level left; conditions: time 14 day

Structure (SMILES)	IC50 [1]	CLH [2]	efflux ratio at 2 h, 10 µM [3]	IC50 (Cytochrome P450 2C9)	fraction unbound at 4 h, 2 µM [4]	IC50 (Cytochrome P450 3A4)	half-life [7]	Vdss [9]	Activity (Mus musculus [14])	Activity (Mus musculus [18])	Cmax at 24 h (in vivo [20])	bioavailability at 24 h (in vivo [21])	AUC at 24 h [22]	other results
O=C(Nc1nc2cccc(C3CCC4(CC3)CCN(C(=O)[C@@H]3CC3(F)F)C4)n2n1)C1CC1 (stereo partly drawn)	5.76 µM	134.3 µL/min/mg	19.5	49 µM	0.205	> 100 µM	–	–	–	–	–	–	–	–
O=C(Nc1nc2cccc(C3CCC4(CC3)CN(C(=O)[C@@H]3CC3(F)F)C4)n2n1)C1CC1	–	9.1 µL/min/mg	–	–	0.26	–	2.01 h	1.61 L/kg	Active	Active	–	–	–	Activity [5]: 95%; half-life [6]: 3.06 h; Activity [8]: 57%; Activity [10]: 34%; AUC at 24 h [11]: 19600 ng·h/mL; clearance [12]: 10.5 mL/min/kg; Activity [13]: 106%; Activity [15]: 94%; Cmax at 24 h (in vivo [16]): 4960 ng/mL; bioavailability at 24 h (in vivo [17]): 121%; Activity [19]: 81%
O=C(Nc1nc2cccc(C3CCC4(CC3)CCN(C(=O)[C@@H]3CC3(F)F)CC4)n2n1)C1CC1	1 µM	40.6 µL/min/mg	6.77	46.8 µM	0.067	> 100 µM	4.74 h	0.942 L/kg	Active	Active	7.38 µM	50.1%	18 µM·h	Activity (Mus musculus [23]): 100%
O=C(Nc1nc2cccc([C@H]3CC[C@@H](NC(=O)[C@@H]4CC4(F)F)CC3)n2n1)C1CC1	0.957 µM	34.2 µL/min/mg	10.5	> 100 µM	0.156	> 100 µM	1.5 h	0.501 L/kg	–	–	25.7 µM	66.6%	54.1 µM·h	–
